Test results reported in the supplement of paper PMC12317010.

Assay: collision cross section in nitrogen (drift tube, single-field); higher = larger gas-phase ion size
[1] = ion type: [M+H], ion source: APCI, ion mode: Positive
[2] = ion type: [M+H], ion source: ESI, ion mode: Positive
[3] = ion type: [M-H], ion source: ESI, ion mode: Negative
[4] = ion type: [M+Na], ion source: ESI, ion mode: Positive
[5] = ion type: [M+], ion source: APCI, ion mode: Positive
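Further: chemical standards at 10 µM analysed by drift tube IMS-QTOF MS in about 3.95 torr nitrogen, mean of duplicate injections differing ≤1%, mass error below 10 ppm.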

SMILES	collision cross section in nitrogen [1]	collision cross section in nitrogen [2]	collision cross section in nitrogen [3]	other results
CCOc1cc([N+](=O)[O-])c(OCC)cc1N1CCOCC1 [4-(2,5-Diethoxy-4-nitrophenyl)morpholine]	173.1 Å²	173.2 Å²		
CCC(C)(C)c1ccc(O)cc1 [4-(2-Methylbutan-2-yl)phenol]			143.8 Å²	
CC1=NN(c2ccc(C(=O)O)cc2)C(=O)C1 [4-(3-Methyl-5-oxo-4,5-dihydro-1H-pyrazol-1-yl)benzoic acid]		151.6 Å²	146.2 Å²	
c1ccc(CCCc2ccncc2)cc1 [4-(3-Phenylpropyl)pyridine]	145.9 Å²	146.1 Å²		
CC(C)Oc1ccc(S(=O)(=O)c2ccc(O)cc2)cc1 [4-((4-Isopropoxyphenyl)sulfonyl)phenol]	180.9 Å²	171.8 Å²	174.8 Å²	collision cross section in nitrogen [4]: 187.9 Å²
CCN(CC)c1ccc(C=O)cc1 [4-(Diethylamino)benzaldehyde]	139.4 Å²	140.3 Å²		
CCN(CC)c1ccc(C=O)c(O)c1 [4-(Diethylamino)salicylaldehyde]	142.6 Å²	143.7 Å²	147 Å²	
c1cc(N(CC2CO2)CC2CO2)ccc1OCC1CO1 (configuration not stated) [4-(Diglycidylamino)phenyl glycidyl ether]	167.5 Å²	167 Å²		collision cross section in nitrogen [4]: 161.7 Å²
CC1(CO)CN(c2ccccc2)NC1=O (configuration not stated) [4-(Hydroxymethyl)-4-methyl-1-phenylpyrazolidin-3-one]				collision cross section in nitrogen [5]: 143.2 Å²
CN(CCCC(O)c1cccnc1)N=O (configuration not stated) [4-(Methylnitrosamino)-1-(3-pyridyl)-1-butanol]	146.4 Å²	146.4 Å²		collision cross section in nitrogen [4]: 152.5 Å²
O=C(Oc1ccc(Br)cc1)N1CCN2CCC1CC2 [4-Bromophenyl 1,4-diazabicyclo(3.2.2)nonane-4-carboxylate]	177.7 Å²	178.5 Å²		
CCCCc1ccc(O)cc1 [4-Butylphenol]			140.6 Å²	
Cc1cc(Cl)ccc1O [4-Chloro-2-methylphenol]			124.8 Å²	
Cc1cc(O)ccc1Cl [4-Chloro-3-methylphenol]			125.9 Å²	
O=C(c1ccccc1)c1ccc(Cl)cc1 [4-Chlorobenzophenone]				collision cross section in nitrogen [4]: 151.1 Å²
O=C(O)c1cc[c]([Hg][Cl])cc1 [4-Chloromercuribenzoic acid]			143 Å²	

SMILES	collision cross section in nitrogen [1]	collision cross section in nitrogen [2]	collision cross section in nitrogen [3]	other results
Oc1ccc(Cl)cc1 [4-Chlorophenol]			120.2 Å²	
O=C(O)COc1ccc(Cl)cc1 [4-Chlorophenoxyacetic acid]			140.9 Å²	
N#CCc1ccc(Cl)cc1 [4-Chlorophenylacetonitrile]			130.4 Å²	
CC(C)(c1ccccc1)c1ccc(O)cc1 [4-Cumylphenol]			157.8 Å²	
CCOc1ccc(N)cc1 [4-Ethoxyaniline]		139.8 Å²		
CCCCCCCc1ccc(O)cc1 [4-Heptylphenol]			157.1 Å²	
O=[N+]([O-])c1cc([As](=O)(O)O)ccc1O [4-Hydroxy-3-nitrophenylarsonic acid]		145 Å²	141.8 Å²	
C[C@]12CCC(=O)C(O)=C1CC[C@@H]1[C@@H]2CC[C@]2(C)C(=O)CC[C@@H]12 [4-Hydroxyandrostenedione]			180 Å²	
N#Cc1ccc(O)cc1 [4-Hydroxybenzonitrile]			118.1 Å²	
Oc1ccc(I)cc1 [4-Iodophenol]			124.5 Å²	
CC(C)c1ccc(O)cc1 [4-Isopropylphenol]			134.1 Å²	
COc1ccc(N)cc1 [4-Methoxybenzenamine]	120.3 Å²	133.2 Å²		
COc1ccc(O)cc1 [4-Methoxyphenol]				collision cross section in nitrogen [5]: 123.7 Å²
COc1ccc(CC#N)cc1 [4-Methoxyphenylacetonitrile]	127.3 Å²			
CC1CN(c2ccccc2)NC1=O (configuration not stated) [4-Methyl-1-phenylpyrazolidin-3-one]				collision cross section in nitrogen [5]: 138 Å²
Cc1ccc(N)c([N+](=O)[O-])c1 [4-Methyl-2-nitroaniline]			127.7 Å²	

Now from value to molecule, other results behind:

collision cross section in nitrogen [1]	collision cross section in nitrogen [2]	collision cross section in nitrogen [3]	SMILES	other results
185.9 Å²	185.2 Å²		CCCCC(CC)COC(=O)c1ccc(N(C)C)cc1 (configuration not stated) [4-(Dimethylamino)benzoic acid 2-ethylhexyl ester]	
		169 Å²	COc1cc(S(=O)(=O)Nc2ccccc2)c(OC)cc1N [4-Amino-2,5-dimethoxy-N-phenylbenzenesulfonamide]	collision cross section in nitrogen [4]: 180.5 Å²; collision cross section in nitrogen [5]: 167.2 Å²
		125 Å²	CC(=O)c1ccc(N)cc1 [4-Aminoacetophenone]	
126.4 Å²	126.5 Å²		NC(=O)c1ccc(N)cc1 [4-Aminobenzamide]	
		134.5 Å²	Nc1ccc(S(=O)(=O)O)cc1 [4-Aminobenzenesulfonic acid]	
		147.4 Å²	Oc1ccc(Nc2ccccc2)cc1 [4-Anilinophenol]	collision cross section in nitrogen [5]: 140.4 Å²
	149.8 Å²		CCCCc1ccc(N)cc1 [4-Butylaniline]	
	153.5 Å²		CCCCOc1ccc(N)cc1 [4-Butyloxyaniline]	
		131.7 Å²	Cc1cc(O)cc(C)c1Cl [4-Chloro-3,5-dimethylphenol]	
		126.1 Å²	Nc1ccc(Cl)c([N+](=O)[O-])c1 [4-Chloro-3-nitroaniline]	
		134.9 Å²	NS(=O)(=O)c1ccc(Cl)cc1 [4-Chlorobenzenesulphonamide]	
		133.5 Å²	O=S(=O)(O)c1ccc(Cl)cc1 [4-Chlorobenzenesulphonic acid]	
	121.6 Å²	117.2 Å²	[O-][n+]1ccc(Cl)cc1 [4-Chloropyridine 1-oxide]	
		122.5 Å²	Oc1ccc(Cl)c(O)c1 [4-Chlororesorcinol]	
		142.1 Å²	N#Cc1ccc(C(=O)O)cc1 [4-Cyanobenzoic acid]	
152.1 Å²	152.5 Å²		Cc1c(N(C)C)c(=O)n(-c2ccccc2)n1C [4-Dimethylaminoantipyrine]	collision cross section in nitrogen [4]: 166.2 Å²
129.3 Å²	129 Å²		CN(C)c1ccc(C=O)cc1 [4-Dimethylaminobenzaldehyde]	
176.3 Å²	176.3 Å²		CCCCCCCCCCCCN1CCOCC1 [4-Dodecylmorpholine]	

collision cross section in nitrogen [1]	collision cross section in nitrogen [2]	collision cross section in nitrogen [3]	SMILES	other results
		128.7 Å²	CCc1ccc(O)cc1 [4-Ethylphenol]	collision cross section in nitrogen [5]: 123.4 Å²
		121.9 Å²	Nc1ccc(F)c([N+](=O)[O-])c1 [4-Fluoro-3-nitroaniline]	
162.8 Å²	162.8 Å²		CCCCCCc1ccc(N)cc1 [4-Hexylaniline]	
168 Å²	167.4 Å²		CCCCCCOc1ccc(N)cc1 [4-Hexyloxyaniline]	
		150.2 Å²	CCCCCCc1ccc(O)cc1O [4-Hexylresorcinol]	
		128.1 Å²	COc1cc(C=O)ccc1O [4-Hydroxy-3-methoxybenzaldehyde]	
120.7 Å²	121.8 Å²		COc1cnccc1O [4-Hydroxy-3-methoxypyridine]	
		180.6 Å²	O=S(=O)(O)c1cc(O)c2ccc(Nc3ccccc3)cc2c1 [4-Hydroxy-7-(phenylamino)naphthalene-2-sulfonic acid]	
		125.5 Å²	CC(=O)c1ccc(O)cc1 [4-Hydroxyacetophenone]	
		154.7 Å²	O=C(Oc1ccc(O)cc1)c1ccccc1 [4-Hydroxyphenyl benzoate]	
201 Å²	200.9 Å²	214.6 Å²	CCC(=C(c1ccc(O)cc1)c1ccc(OCCN(C)C)cc1)c1ccccc1 [4-Hydroxytamoxifen]	collision cross section in nitrogen [4]: 196.9 Å²
		147.7 Å²	CC(C)c1ccc(S(=O)(=O)O)cc1 [4-Isopropylbenzenesulfonic acid]	
150.5 Å²	150.5 Å²		COc1ccc(Nc2ccccc2)c(C)c1 [4-Methoxy-2-methyl-N-phenylaniline]	collision cross section in nitrogen [5]: 148.1 Å²
124.8 Å²	135.7 Å²		COc1ccc(N)c(C)c1 [4-Methoxy-2-methylaniline]	
		134.4 Å²	Cc1ccc(S(=O)(=O)O)cc1 [4-Methylbenzenesulfonic acid hydrate]	
118.1 Å²	119.5 Å²		Cc1ccnc(N)c1 [4-Methylpyridin-2-amine]	
	133 Å²	133.7 Å²	Cc1cc(=O)oc2cc(O)ccc12 [4-Methylumbelliferone hydrate]	
	132.6 Å²	133.3 Å²	Cc1cc(=O)oc2cc(O)ccc12 [4-Methylumbelliferone]	
